Source: patent US11684614B2, “Formulations of hydroxypyridonate actinide/lanthanide decorporation agents” (priority 2017, dated 2023)

Test: Repeated-treatment efficacy for removing an intravenous dose of 238Pu (excretion, tissue retention, clinical observations), female and male arms
Type: in vivo, Swiss-Webster mice
Conditions: male mice; for 238Pu percent increase in excretion, Total Excretion / 238Pu percent increase in excretion, Total Feces / 238Pu percent increase in excretion, Total Urine: over untreated control group; for ^238Pu percent tissue reduction, GI Trace / ^238Pu percent tissue reduction, Kidney / ^238Pu percent tissue reduction, Liver / ^238Pu percent tissue reduction, Soft Tissue / ^238Pu percent tissue reduction, Total Body / ^238Pu percent tissue reduction, Total Bone / ^238Pu percent tissue reduction, GI Tract: vs untreated control group
Experimental: The objective of this study was to characterize the efficacy of 3,4,3-L1(1,2-HOPO) at enhancing elimination from an internal plutonium burden in female and male Swiss-Webster mice administered a soluble citrate complex of ^238Pu and treated multiple times, starting at 24 hours after the exposure. Efficacy was evaluated by comparing the tissue contents, urinary and fecal excretions of ^238Pu in treated animals versus untreated animals.
The medical countermeasure 3,4,3-L1(1,2-HOPO) was administered parenterally (ip) or orally (po) via consecutive injections or gavages (six daily or twelve twice daily) starting at 24 hours post contamination at the following four selected doses: 30 μmol/kg ip, 150 μmol/kg po, 300 μmol/kg po, and 600 μmol/kg po (equivalent to respective approximate human doses range of […], using the accepted conversion system of mouse doses into human equivalent doses—HED—based on body surface area). Oral doses also included the permeability enhancer selected during formulation development work.
• Challenge isotope: ^238Pu • Challenge dose: 25 nCi (i.e., approximately 0.8 μCi/kg) • Route of contamination: Intravenous (iv) tail-vein • Route of treatment: Intraperitoneal Injection (ip) or Oral (po) • Frequency of treatment: Multiple (once- or twice-daily for 6 days) doses, starting 24 hr postcontamination • Treatment dose calculation: Dose calculations (mg/kg or μmol/kg) for the decorporation agent were based on the individual body weight measured after contamination. • Study Duration: 11 days, in-life
c. […] Test article and control dose formulations were prepared within 1 day of dose administration, by weighing out the appropriate amount of test article, dispersing in vehicle. For ip solutions, the test article was used alone, while for oral suspensions, a mixture of test article and excipient (90:10, w:w) was used. The pH was adjusted to 7.0-7.4 for ip administration and 5.0-5.5 for oral administration with sterile NaOH. Dose formulations were prepared at room temperature and filter-sterilized. • Storage: 2-8° C.; refrigerated; protected from light. • Characterization: The concentration of each test article formulation was verified by high-performance liquid chromatography-mass spectrometry. • Test Article Handling: Test, reference, and control article formulations were handled with the use of eye protection, gloves, and a protective laboratory coat. • Correct Dose Assurance: The test article was weighed with calibrated balances. The administration of each dose formulation was properly documented, and the amount administered to each animal recorded.
e. Experimental Procedures (In-Life Evaluations and Euthanasia) • Contamination: Single administration by intravenous (iv) tail-vein injection (0.2 mL injection volume) under isoflurane anesthesia. Three standard 0.2 mL injections were performed into polyethylene bottles and pre-loaded with aliquots of concentrated nitric acid on each injection day. Six female and six male mice were culled for necropsy 1 hr post-contamination and were used as standards. A11 standards were processed and counted together with the final samples to allow verification of the contamination dose. • Dose Administration: Single administration by intraperitoneal injection (ip) or oral gavage (po) under isoflurane anesthesia. • Mortality/Morbidity: Assessed at least once daily. • Clinical Observations: Recorded once daily (4 hr post-dose on day of treatment), or more often as clinical signs warranted. […]

[1] = 30 μmol/kg, IP, 11-day necropsy
[2] = 150 μmol/kg, 2 doses PO, 7-day necropsy
[3] = 300 μmol/kg, 1 dose PO, 7-day necropsy
[4] = 300 μmol/kg, 1 dose PO, 11-day necropsy
[5] = 300 μmol/kg, 2 doses PO, 7-day necropsy
[6] = 300 μmol/kg, PO, 11-day necropsy
[7] = 600 μmol/kg, 1 dose PO, 7-day necropsy
[8] = 600 μmol/kg, 1 dose PO, 11-day necropsy
[9] = 600 μmol/kg, PO, 11-day necropsy
[10] = 600 μmol/kg, dose PO, 7-day necropsy

Q: Which results are given for `O=C(NCCCN(CCCCN(CCCNC(=O)c1cccc(=O)n1O)C(=O)c1cccc(=O)n1O)C(=O)c1cccc(=O)n1O)c1cccc(=O)n1O` [Formulation 343]?
A: ^238Pu excretion, Total Excretion, Avg [1]: 79.89 percent recovered dose; ^238Pu excretion, Total Feces, Avg [1]: 48.24 percent recovered dose; ^238Pu excretion, Total Urine, Avg [1]: 31.65 percent recovered dose; ^238Pu retention, GI Tract, Avg [1]: 0.53 percent recovered dose; ^238Pu retention, Kidney, Avg [1]: 0.12 percent recovered dose; ^238Pu retention, Liver, Avg [1]: 2.42 percent recovered dose; ^238Pu retention, Soft Tissue, Avg [1]: 1.14 percent recovered dose; ^238Pu retention, Total Body, Avg [1]: 20.11 percent recovered dose; ^238Pu retention, Total Bone, Avg [1]: 15.90 percent recovered dose; 238Pu percent increase in excretion, Total Excretion [1]: 168.28%; 238Pu percent increase in excretion, Total Feces [1]: 188.96%; 238Pu percent increase in excretion, Total Urine [1]: 144.22%; ^238Pu percent tissue reduction, GI Trace [1]: 72.95%; ^238Pu percent tissue reduction, Kidney [1]: 65.35%; ^238Pu percent tissue reduction, Liver [1]: 85.55%; ^238Pu percent tissue reduction, Soft Tissue [1]: 67.92%; ^238Pu percent tissue reduction, Total Body [1]: 61.72%; ^238Pu percent tissue reduction, Total Bone [1]: 46.83%; ^238Pu excretion, Total Excretion, Avg [2]: 53.58 percent recovered dose; ^238Pu excretion, Total Feces, Avg [2]: 30.26 percent recovered dose; ^238Pu excretion, Total Urine, Avg [2]: 23.32 percent recovered dose; ^238Pu retention, GI Tract, Avg [2]: 1.67 percent recovered dose; ^238Pu retention, Kidney, Avg [2]: 0.31 percent recovered dose; ^238Pu retention, Liver, Avg [2]: 21.40 percent recovered dose; ^238Pu retention, Soft Tissue, Avg [2]: 3.16 percent recovered dose; ^238Pu retention, Total Body, Avg [2]: 46.42 percent recovered dose; ^238Pu retention, Total Bone, Avg [2]: 19.87 percent recovered dose; 238Pu percent increase in excretion, Total Excretion [2]: 149.61%; 238Pu percent increase in excretion, Total Feces [2]: 174.63%; 238Pu percent increase in excretion, Total Urine [2]: 126.15%; ^238Pu percent tissue reduction, GI Tract [2]: −17.71%; ^238Pu percent tissue reduction, Kidney [2]: −4.19%; ^238Pu percent tissue reduction, Liver [2]: 18.09%; ^238Pu percent tissue reduction, Soft Tissue [2]: −5.31%; ^238Pu percent tissue reduction, Total Body [2]: 27.68%; ^238Pu percent tissue reduction, Total Bone [2]: 40.39%; ^238Pu excretion, Total Excretion, Avg [3]: 64.11 percent recovered dose; ^238Pu excretion, Total Feces, Avg [3]: 40.12 percent recovered dose; ^238Pu excretion, Total Urine, Avg [3]: 24.00 percent recovered dose; ^238Pu retention, GI Tract, Avg [3]: 1.23 percent recovered dose; ^238Pu retention, Kidney, Avg [3]: 0.17 percent recovered dose; ^238Pu retention, Liver, Avg [3]: 12.68 percent recovered dose; ^238Pu retention, Soft Tissue, Avg [3]: 1.75 percent recovered dose; ^238Pu retention, Total Body, Avg [3]: 35.89 percent recovered dose; ^238Pu retention, Total Bone, Avg [3]: 20.06 percent recovered dose; 238Pu percent increase in excretion, Total Excretion [3]: 162.02%; 238Pu percent increase in excretion, Total Feces [3]: 225.83%; 238Pu percent increase in excretion, Total Urine [3]: 110.04%; ^238Pu percent tissue reduction, GI Tract [3]: 21.76%; ^238Pu percent tissue reduction, Kidney [3]: 40.67%; ^238Pu percent tissue reduction, Liver [3]: 43.47%; ^238Pu percent tissue reduction, Soft Tissue [3]: 34.62%; ^238Pu percent tissue reduction, Total Body [3]: 40.61%; ^238Pu percent tissue reduction, Total Bone [3]: 40.06%; ^238Pu retention, GI Tract, Avg [4]: 1.03 percent recovered dose; ^238Pu retention, Kidney, Avg [4]: 0.15 percent recovered dose; ^238Pu retention, Liver, Avg [4]: 9.46 percent recovered dose; ^238Pu retention, Soft Tissue, Avg [4]: 2.20 percent recovered dose; ^238Pu retention, Total Body, Avg [4]: 33.83 percent recovered dose; ^238Pu retention, Total Bone, Avg [4]: 20.99 percent recovered dose; ^238Pu percent tissue reduction, GI Trace [4]: 30.01%; ^238Pu percent tissue reduction, Kidney [4]: 45.60%; ^238Pu percent tissue reduction, Liver [4]: 48.32%; ^238Pu percent tissue reduction, Soft Tissue [4]: 22.51%; ^238Pu percent tissue reduction, Total Body [4]: 36.96%; ^238Pu percent tissue reduction, Total Bone [4]: 30.34%; ^238Pu excretion, Total Excretion, Avg [5]: 59.71 percent recovered dose; ^238Pu excretion, Total Feces, Avg [5]: 34.14 percent recovered dose; ^238Pu excretion, Total Urine, Avg [5]: 25.57 percent recovered dose; ^238Pu retention, GI Tract, Avg [5]: 1.45 percent recovered dose; ^238Pu retention, Kidney, Avg [5]: 0.18 percent recovered dose; ^238Pu retention, Liver, Avg [5]: 15.12 percent recovered dose; ^238Pu retention, Soft Tissue, Avg [5]: 2.41 percent recovered dose; ^238Pu retention, Total Body, Avg [5]: 40.29 percent recovered dose; ^238Pu retention, Total Bone, Avg [5]: 21.12 percent recovered dose; 238Pu percent increase in excretion, Total Excretion [5]: 166.71%; 238Pu percent increase in excretion, Total Feces [5]: 197.01%; 238Pu percent increase in excretion, Total Urine [5]: 138.32%; ^238Pu percent tissue reduction, GI Tract [5]: −2.24%; ^238Pu percent tissue reduction, Kidney [5]: 39.84%; ^238Pu percent tissue reduction, Liver [5]: 42.11%; ^238Pu percent tissue reduction, Soft Tissue [5]: 19.73%; ^238Pu percent tissue reduction, Total Body [5]: 37.23%; ^238Pu percent tissue reduction, Total Bone [5]: 36.64%; ^238Pu excretion, Total Excretion, Avg [6]: 66.17 percent recovered dose; ^238Pu excretion, Total Feces, Avg [6]: 40.33 percent recovered dose; ^238Pu excretion, Total Urine, Avg [6]: 25.84 percent recovered dose; 238Pu percent increase in excretion, Total Excretion [6]: 142.80%; 238Pu percent increase in excretion, Total Feces [6]: 180.35%; 238Pu percent increase in excretion, Total Urine [6]: 107.78%; ^238Pu excretion, Total Excretion, Avg [7]: 65.66 percent recovered dose; ^238Pu excretion, Total Feces, Avg [7]: 40.53 percent recovered dose; ^238Pu excretion, Total Urine, Avg [7]: 25.13 percent recovered dose; 238Pu percent increase in excretion, Total Excretion [7]: 165.93%; 238Pu percent increase in excretion, Total Feces [7]: 228.14%; 238Pu percent increase in excretion, Total Urine [7]: 115.25%; ^238Pu percent tissue reduction, GI Tract [7]: −3.93%; ^238Pu percent tissue reduction, Kidney [7]: 11.13%; ^238Pu percent tissue reduction, Liver [7]: 44.57%; ^238Pu percent tissue reduction, Soft Tissue [7]: 17.40%; ^238Pu percent tissue reduction, Total Body [7]: 43.17%; ^238Pu percent tissue reduction, Total Bone [7]: 46.78%; ^238Pu retention, GI Tract, Avg [8]: 0.75 percent recovered dose; ^238Pu retention, Kidney, Avg [8]: 0.19 percent recovered dose; ^238Pu retention, Liver, Avg [8]: 6.78 percent recovered dose; ^238Pu retention, Soft Tissue, Avg [8]: 1.93 percent recovered dose; ^238Pu retention, Total Body, Avg [8]: 27.67 percent recovered dose; ^238Pu retention, Total Bone, Avg [8]: 18.02 percent recovered dose; ^238Pu percent tissue reduction, GI Trace [8]: 49.06%; ^238Pu percent tissue reduction, Kidney [8]: 32.19%; ^238Pu percent tissue reduction, Liver [8]: 62.99%; ^238Pu percent tissue reduction, Soft Tissue [8]: 32.01%; ^238Pu percent tissue reduction, Total Body [8]: 48.44%; ^238Pu percent tissue reduction, Total Bone [8]: 40.18%; ^238Pu excretion, Total Excretion, Avg [9]: 72.33 percent recovered dose; ^238Pu excretion, Total Feces, Avg [9]: 44.91 percent recovered dose; ^238Pu excretion, Total Urine, Avg [9]: 27.43 percent recovered dose; 238Pu percent increase in excretion, Total Excretion [9]: 156.10%; 238Pu percent increase in excretion, Total Feces [9]: 200.32%; 238Pu percent increase in excretion, Total Urine [9]: 114.39%; ^238Pu retention, GI Tract, Avg [10]: 1.63 percent recovered dose; ^238Pu retention, Kidney, Avg [10]: 0.25 percent recovered dose; ^238Pu retention, Liver, Avg [10]: 12.44 percent recovered dose; ^238Pu retention, Soft Tissue, Avg [10]: 2.22 percent recovered dose; ^238Pu retention, Total Body, Avg [10]: 34.34 percent recovered dose; ^238Pu retention, Total Bone, Avg [10]: 17.81 percent recovered dose
